Measured values published in patent publication US3950352A, “2,2-Dimethyl-3R-carboxy-6S-phenyl(or phenoxy)acetamido-1-oxa-4-aza-5R-bicyclo[3,2,0]heptan-7-one and processes for their production” (Queen's University, priority 1974, dated 1976).

Experiment: antibacterial activity (organism not stated)
Assay type: cell-based
Conditions: at levels of 250 mcg./ml.
Text: After overnight development in a system containing n-butanol 60:acetic acid:15: water 25, the strips were air dried and one set was sprayed with Riker penicillinase. Both sets were then subjected to bioautography on B. subtilis.

## CC(C)=C(C(=O)O)N1C(=O)[C@H]2N=C(Cc3ccccc3)O[C@H]21 [oxazoline carboxylic acid, 2-benzyl-6-(1'-carboxy-2'-methylprop-1'-enyl)-1-oxa-3,6-diaza-4S,5R-bicyclo [3,2,0] hept-2-en-7-one]
  antibacterial activity: inactive
